Experiments:
Test in all cases: relative viability (nuclei count vs DMSO), 5 days (fraction); higher = more cells survive
QS11 + Pemetrexed = compound: C1CC2=C(C1)C=C(C=C2)OC3=NC(=C4C(=N3)N(C=N4)CC5=CC=C(C=C5)C6=CC=CC=C6)N[C@@H](CC7=CC=CC=C7)CO [QS11] + Nc1nc2[nH]cc(CCc3ccc(C(=O)N[C@@H](CCC(=O)O)C(=O)O)cc3)c2c(=O)[nH]1 [Pemetrexed] (partner 0.2 µM)
Procedure, shortened: (§1)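 Relative viability divides the nuclei count in treated wells by that in vehicle wells. Lung cancer cell lines were seeded in 1536-well plates, dosed by pin tool the next day, and fixed and stained after 5 days in one step with final 0.05% Triton X-100, 1% formaldehyde and 1 ug/ml Hoechst. Dosing was a single drug or a fixed anchor-drug dose plus five library-drug doses (not always all listed) in √10 steps, and values are medians of duplicate plates imaged at 4×.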

QS11 + Luminespib = compound: C1CC2=C(C1)C=C(C=C2)OC3=NC(=C4C(=N3)N(C=N4)CC5=CC=C(C=C5)C6=CC=CC=C6)N[C@@H](CC7=CC=CC=C7)CO [QS11] + CCNC(=O)c1noc(-c2cc(C(C)C)c(O)cc2O)c1-c1ccc(CN2CCOCC2)cc1 [Luminespib] (partner 0.01 µM)
Procedure, shortened: as §1

AZ628 + Foretinib = compound: CC1=C(C=C(C=C1)NC(=O)C2=CC(=CC=C2)C(C)(C)C#N)NC3=CC4=C(C=C3)N=CN(C4=O)C [AZ628] + COc1cc2c(Oc3ccc(NC(=O)C4(C(=O)Nc5ccc(F)cc5)CC4)cc3F)ccnc2cc1OCCCN1CCOCC1 [Foretinib] (partner 0.25 µM)
Procedure, shortened: as §1

Darinaparsin + OSI-027 = compound: C[As](C)SC[C@H](NC(=O)CC[C@H](N)C(=O)O)C(=O)NCC(=O)O [Darinaparsin] + COc1cccc2cc(-c3nc([C@H]4CC[C@H](C(=O)O)CC4)n4ncnc(N)c34)[nH]c12 [OSI-027] (partner 0.5 µM)
Procedure, shortened: as §1

Row | Cell Line | relative viability (QS11 + Pemetrexed; first compound 0.08 µM) | relative viability (QS11 + Pemetrexed; first compound 0.253 µM) | relative viability (QS11 + Pemetrexed; first compound 0.8 µM) | relative viability (QS11 + Pemetrexed; first compound 2.53 µM) | relative viability (QS11 + Pemetrexed; first compound 8 µM) | relative viability (QS11 + Luminespib; first compound 0.08 µM) | relative viability (QS11 + Luminespib; first compound 0.253 µM) | relative viability (QS11 + Luminespib; first compound 0.8 µM) | relative viability (QS11 + Luminespib; first compound 2.53 µM) | relative viability (QS11 + Luminespib; first compound 8 µM) | relative viability (AZ628 + Foretinib; first compound 0.08 µM) | relative viability (AZ628 + Foretinib; first compound 0.253 µM) | relative viability (AZ628 + Foretinib; first compound 0.8 µM) | relative viability (AZ628 + Foretinib; first compound 2.53 µM) | relative viability (AZ628 + Foretinib; first compound 8 µM) | relative viability (Darinaparsin + OSI-027; first compound 0.08 µM) | relative viability (Darinaparsin + OSI-027; first compound 0.8 µM) | relative viability (Darinaparsin + OSI-027; first compound 2.53 µM) | relative viability (Darinaparsin + OSI-027; first compound 8 µM)
1 | COR-L23 | 0.196 | 0.179 | 0.206 | 0.198 | 0.199 | 0.718 | 0.683 | 0.673 | 0.552 | 0.576 | 1.02 | 1 | 0.949 | 1.08 | 0.625 | 0.975 | 0.645 | 0.785 | 0.838
2 | NCI-H460 | 0.056 | 0.0683 | 0.0585 | 0.0792 | 0.0751 | 0.0331 | 0.0356 | 0.0316 | 0.0243 | 0.0438 | 0.978 | 0.996 | 0.974 | 1.02 | 0.54 | 0.98 | 0.753 | 0.537 | 1.19
3 | SK-MES-1 | 1.08 | 0.94 | 0.832 | 0.977 | 0.863 | 0.553 | 0.927 | 0.685 | 0.883 | 0.823 | 0.837 | 0.894 | 0.801 | 0.771 | 0.846 | 0.627 | 0.743 | 0.561 | 0.819
4 | SW 900 | 0.384 | 0.456 | 0.465 | 0.503 | 0.514 | 0.18 | 0.197 | 0.166 | 0.17 | 0.178 | 0.931 | 0.874 | 0.971 | 0.685 | 0.619 | 0.851 | 0.547 | 0.72 | 0.756
5 | LC-2-ad | 0.273 | 0.27 | 0.27 | 0.294 | 0.26 | 0.851 | 0.981 | 0.857 | 0.956 | 1.17 | 1.02 | 1.06 | 0.947 | 0.978 | 0.863 | 0.877 | 0.762 | 0.67 | 0.759
6 | BEN | 0.638 | 0.764 | 0.911 | 0.852 | 0.815 | 0.241 | 0.567 | 0.366 | 0.507 | 0.31 | 0.694 | 0.511 | 0.544 | 0.561 | 0.571 | 0.312 | 0.306 | 0.281 | 0.299
7 | NCI-H1651 | 0.575 | 0.616 | 0.582 | 0.598 | 0.584 | 1.05 | 0.923 | 0.75 | 0.714 | 0.752 | 0.887 | 0.867 | 0.885 | 0.774 | 0.856 | 0.78 | 0.753 | 0.619 | 0.822
8 | EKVX | 0.385 | 0.412 | 0.412 | 0.356 | 0.345 | 0.907 | 0.732 |  | 0.848 | 1.03 | 0.724 | 0.609 | 0.721 | 0.847 | 0.564 | 0.723 | 0.604 | 0.752 | 0.833
9 | COR-L 105 | 1.14 | 0.96 | 1.04 | 0.955 | 0.942 | 0.838 | 0.7 | 0.649 | 0.776 | 0.664 | 1.47 | 0.95 | 1.19 | 1.11 | 0.669 | 0.625 | 0.704 | 0.486 | 0.559
10 | NCI-H1650 | 0.472 | 0.33 | 0.321 | 0.34 | 0.366 | 0.193 | 0.209 | 0.201 | 0.192 | 0.216 | 1.33 | 1.34 | 1.42 | 1.26 | 1.02 | 0.567 | 0.612 | 0.504 | 0.757
11 | HCC-15 | 0.213 | 0.232 | 0.223 | 0.274 | 0.227 | 0.334 | 0.311 | 0.332 | 0.341 | 0.389 | 1.08 | 0.984 | 0.871 | 0.868 | 0.467 | 0.737 | 0.59 | 0.694 | 0.707
12 | ChaGo-K-1 |  | 0.269 | 0.256 | 0.263 | 0.255 | 0.506 | 0.609 | 0.679 | 0.664 | 0.655 | 0.962 | 0.837 | 0.924 | 0.916 | 0.751 | 0.612 | 0.518 | 0.516 | 0.715
13 | SK-LU-1 | 0.993 | 1.07 | 0.913 | 0.835 | 0.781 | 0.21 | 0.192 | 0.211 | 0.223 | 0.211 |  | 0.75 | 0.685 | 0.628 | 0.589 | 0.363 | 0.299 | 0.257 | 0.351
14 | LCLC-103H | 0.454 | 0.475 |  | 0.463 | 0.446 | 0.661 | 1.17 | 0.747 | 0.915 | 1.02 | 0.724 | 0.753 | 0.802 | 0.729 | 0.853 | 0.481 | 0.465 | 0.414 | 0.531
15 | RERF-LC-KJ | 0.51 | 0.461 | 0.443 | 0.482 | 0.439 | 1.5 | 1.35 | 1.04 | 1.22 | 1.11 | 0.885 | 0.922 | 0.898 | 0.899 | 0.893 | 0.592 | 0.574 | 0.527 | 0.596
16 | NCI-H2087 | 0.646 | 0.646 | 0.675 | 0.692 | 0.757 | 0.136 | 0.186 |  | 0.158 | 0.172 | 0.839 | 0.821 | 0.727 | 0.78 | 0.256 | 0.604 | 0.67 | 0.527 | 0.705
17 | LOU-NH91 | 0.347 | 0.369 | 0.351 | 0.457 | 0.306 | 0.361 | 0.361 | 0.34 | 0.308 | 0.368 | 0.956 | 0.961 | 0.956 | 0.95 | 0.821 | 0.74 | 0.689 | 0.711 | 0.79
18 | 201T | 0.357 | 0.348 | 0.328 | 0.358 | 0.267 | 1.08 | 1.12 | 0.815 | 1.01 | 0.692 | 1.29 | 1.01 | 1.18 | 1.16 | 1.31 | 0.963 | 0.701 |  | 0.93
19 | UMC-11 | 0.87 | 0.89 | 0.716 | 0.97 | 0.993 | 1.01 | 1.13 | 0.995 | 1.27 | 1.12 | 1.13 | 0.916 | 0.951 | 1 | 1.19 | 0.543 | 0.529 | 0.414 | 0.592
20 | NCI-H1975 | 0.302 | 0.279 | 0.332 | 0.326 | 0.307 | 0.199 | 0.33 | 0.275 | 0.281 | 0.2 | 0.905 | 0.922 | 0.872 | 0.918 | 0.582 | 0.971 | 0.742 | 0.544 | 0.961
21 | NCI-H1395 | 0.84 | 0.911 | 1.09 | 0.917 | 1.16 | 0.795 | 0.549 | 0.762 | 0.843 | 0.819 | 0.996 | 0.967 | 0.974 | 1 | 0.939 | 0.744 | 0.636 | 0.586 | 0.628
22 | SW 1573 | 0.811 | 0.926 | 0.792 | 0.418 | 0.539 | 0.239 | 0.239 | 0.198 | 0.21 | 0.235 | 0.858 | 0.858 | 0.664 | 0.7 | 0.517 | 0.736 | 0.627 | 0.611 | 0.87
23 | NCI-H441 | 0.252 | 0.275 | 0.233 | 0.277 | 0.282 | 0.376 | 0.286 | 0.329 | 0.315 | 0.328 | 0.94 | 0.962 | 0.896 | 0.901 | 0.846 | 0.79 | 0.719 | 0.555 | 0.613
24 | NCI-H1915 | 0.583 | 0.538 |  | 0.567 | 0.529 | 0.952 | 0.959 |  | 0.766 | 0.447 | 1.23 | 1.1 | 0.987 | 0.89 | 0.59 | 0.741 | 0.649 | 0.644 | 0.749

— the supplement of paper PMC10307832
